Source: patent publication US9493436B2, “Tyrosine phosphatase inhibitors and uses thereof to modulate the activity of enzymes involved in the pathology of Mycobacterium tuberculosis” (priority 2011, dated 2016)
Like-named read-outs stand apart in the source and are kept apart here.

How the values were obtained:
mPTPB = target: T1, mPTPB (Mycobacterium tuberculosis, UniProt I6WXK4); test: biochemical; type: biochemical; settings: for In % @ 1 μM (mPTPB): library 13 screened in situ
T1 construct: The full-length mPTPB with a N-terminal His6-tag was expressed and purified; His6 (N); made in house; host or cells: E. coli BL21/DE3 (pET28b-mPTPB)
T1 sequence (I6WXK4 1-276): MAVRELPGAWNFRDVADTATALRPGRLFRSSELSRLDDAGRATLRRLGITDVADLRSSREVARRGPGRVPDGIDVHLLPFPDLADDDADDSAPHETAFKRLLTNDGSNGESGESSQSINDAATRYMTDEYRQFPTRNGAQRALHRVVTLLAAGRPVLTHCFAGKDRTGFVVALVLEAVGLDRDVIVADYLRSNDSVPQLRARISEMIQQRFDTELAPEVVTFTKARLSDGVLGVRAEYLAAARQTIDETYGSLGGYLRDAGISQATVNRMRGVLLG

Lyp = target: T2, Lyp (Homo sapiens, UniProt Q9Y2R2); test: biochemical; type: biochemical
T2 sequence (Q9Y2R2 1-807): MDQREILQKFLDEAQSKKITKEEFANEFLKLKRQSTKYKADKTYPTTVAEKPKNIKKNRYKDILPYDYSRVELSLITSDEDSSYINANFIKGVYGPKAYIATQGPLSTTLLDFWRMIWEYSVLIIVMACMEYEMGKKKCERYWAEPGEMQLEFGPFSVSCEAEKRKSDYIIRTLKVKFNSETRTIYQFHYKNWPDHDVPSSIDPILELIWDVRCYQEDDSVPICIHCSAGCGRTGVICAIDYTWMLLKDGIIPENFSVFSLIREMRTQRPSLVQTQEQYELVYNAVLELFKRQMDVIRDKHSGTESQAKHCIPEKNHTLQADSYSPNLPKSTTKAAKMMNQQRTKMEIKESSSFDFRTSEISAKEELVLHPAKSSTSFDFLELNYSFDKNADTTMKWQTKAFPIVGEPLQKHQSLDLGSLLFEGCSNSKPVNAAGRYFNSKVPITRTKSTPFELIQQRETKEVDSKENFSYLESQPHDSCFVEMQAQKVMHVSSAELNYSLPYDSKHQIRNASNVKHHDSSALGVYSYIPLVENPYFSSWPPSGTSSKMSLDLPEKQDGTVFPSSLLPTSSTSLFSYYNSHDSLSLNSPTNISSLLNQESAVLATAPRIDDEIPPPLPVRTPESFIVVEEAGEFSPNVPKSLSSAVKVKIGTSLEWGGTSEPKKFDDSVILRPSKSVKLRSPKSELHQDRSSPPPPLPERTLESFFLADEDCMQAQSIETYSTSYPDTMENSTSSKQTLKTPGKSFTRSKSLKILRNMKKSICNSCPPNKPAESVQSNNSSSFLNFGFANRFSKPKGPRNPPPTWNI

[1] = pNPP substrate, pH 7.0, 25° C., read-out: IC50 (μM) against mPTPB

Compound | IC50 (mPTPB; [1]) | further results
O=C(O)c1cc2c(C=Cc3cc(F)cc(F)c3)c(-c3ccccc3)oc2cc1O [43 (L01Z25)] | 1.2 µM | –
Cn1c(-c2ccccc2C(F)(F)F)c(C#Cc2ccc(Oc3ccccc3)cc2)c2cc(C(=O)O)c(O)cc21 [Compound 209d, 6-hydroxy-1-methyl-3-((4-phenoxyphenyl)ethynyl)-2-(2-(trifluoromethyl)phenyl)-1H-indole-5-carboxylic acid] | 0.46 ± 0.06 µM | –
CC(C)c1ccc(NC(=O)COc2cccc(-c3oc4cc(O)c(C(=O)O)cc4c3C#Cc3cccc(Cl)c3)c2)cc1 | – | IC50 (mPTPB; read-out: IC50 for mPTPB): ~0.025 µM
Cn1c(-c2cccc(C(F)(F)F)c2)c(I)c2cc(C(=O)O)c(O)cc21 [Compound 207b, 6-hydroxy-3-iodo-1-methyl-2-(3-(trifluoromethyl)phenyl)-1H-indole-5-carboxylic acid] | 2.2 ± 0.2 µM | –
C#Cc1c(-c2ccc(Oc3ccccc3)cc2)oc2cc(O)c(C(=O)O)cc12 [40 (Core69)] | 2.3 µM | –
Cn1c(-c2ccc(F)cc2)c(I)c2cc(C(=O)O)c(O)cc21 [Compound 207i, 2-(4-fluorophenyl)-6-hydroxy-3-iodo-1-methyl-1H-indole-5-carboxylic acid] | 12 ± 2 µM | –
Cn1c(-c2ccccc2C(F)(F)F)c(C#Cc2ccccc2C(F)(F)F)c2cc(C(=O)O)c(O)cc21 [Compound 209c, 6-hydroxy-1-methyl-2-(2-(trifluoromethyl)phenyl)-3-((2-(trifluoromethyl)phenyl)ethynyl)-1H-indole-5-carboxylic acid] | 0.3 ± 0.05 µM | –
Cn1c(-c2ccccc2C(F)(F)F)c(C#Cc2ccc(C(F)(F)F)cc2)c2cc(C(=O)O)c(O)cc21 [Compound 209e, 6-hydroxy-1-methyl-2-(2-(trifluoromethyl)phenyl)-3-((4-(trifluoromethyl)phenyl)ethynyl)-1H-indole-5-carboxylic acid] | 0.6 ± 0.1 µM | –
O=C(O)c1cc2c(C#Cc3cccc(Cl)c3)c(-c3ccc(OC(F)(F)F)cc3)oc2cc1O [36 (L73Z01)] | 0.082 µM | –
Cn1c(-c2ccccc2)c(I)c2cc(C(=O)O)c(O)cc21 [Compound 207g, 6-hydroxy-3-iodo-1-methyl-2-phenyl-1H-indole-5-carboxylic acid] | 11 ± 1 µM | –
Cn1c(-c2ccc(-c3ccccc3)cc2)c(I)c2cc(C(=O)O)c(O)cc21 [Compound 207c, 2-([1,1′-biphenyl]-4-yl)-6-hydroxy-3-iodo-1-methyl-1H-indole-5-carboxylic acid] | 2.4 ± 0.2 µM | –
Cn1c(-c2ccc(OC(F)(F)F)cc2)c(I)c2cc(C(=O)O)c(O)cc21 [Compound 207e, 6-hydroxy-3-iodo-1-methyl-2-(4-(trifluoromethoxy)phenyl)-1H-indole-5-carboxylic acid] | 5.5 ± 0.5 µM | –
Cn1c(C2CCCCC2)c(I)c2cc(C(=O)O)c(O)cc21 [Compound 207d, 2-cyclohexyl-6-hydroxy-3-iodo-1-methyl-1H-indole-5-carboxylic acid] | 3.6 ± 0.1 µM | –
CC(=O)NCCC(=O)c1c(-c2ccccc2C(F)(F)F)n(C)c2cc(O)c(C(=O)O)cc12 [Compound 213e, 3-(3-acetamidopropanoyl)-6-hydroxy-1-methyl-2-(2-(trifluoromethyl)phenyl)-1H-indole-5-carboxylic acid] | > 20 µM | In % @ 1 μM (mPTPB) (mPTPB): 0%
CC(C)[C@H]1CC[C@H](C)C[C@@H]1OCC(=O)NCCC(=O)c1c(-c2ccccc2C(F)(F)F)n(C)c2cc(O)c(C(=O)O)cc12 [Compound 213c, 6-hydroxy-3-(3-(2-(((1S,2R,5S)-2-isopropyl-5-methylcyclohexyl)oxy)acetamido)propanoyl)-1-methyl-2-(2-(trifluoromethyl)phenyl)-1H-indole-5-carboxylic acid] | 3.3 ± 0.1 µM | In % @ 1 μM (mPTPB) (mPTPB): 5%
Cn1c(-c2ccccc2F)c(I)c2cc(C(=O)O)c(O)cc21 [Compound 207j, 2-(2-fluorophenyl)-6-hydroxy-3-iodo-1-methyl-1H-indole-5-carboxylic acid] | 16 ± 2 µM | –
Cn1c(-c2cccc(O)c2)c(I)c2cc(C(=O)O)c(O)cc21 [Compound 207k, 6-hydroxy-2-(3-hydroxyphenyl)-3-iodo-1-methyl-1H-indole-5-carboxylic acid] | 18 ± 1 µM | –

Compound | IC50 (mPTPB; [1]) | further results
O=C(O)COc1cccc(C#Cc2c(-c3ccc(OC(F)(F)F)cc3)oc3cc(O)c(C(=O)O)cc23)c1 [39 (L73Z05)] | 0.19 µM | –
C#Cc1c(-c2ccc(-c3ccccc3)cc2)oc2cc(O)c(C(=O)O)cc12 [41 (Core71)] | 0.85 µM | –
O=C(O)c1cc2c(C#Cc3ccc(Oc4ccccc4)cc3)c(-c3ccccc3)oc2cc1O [34 (L01Z12)] | 0.043 µM | –
O=C(O)COc1ccc(-c2oc3cc(O)c(C(=O)O)cc3c2C#Cc2cccc(Cl)c2)cc1 [50 (Core 75)] | 0.101 µM | IC50 (Lyp): 7.6 ± 0.4 µM; loss of activity compare with compound 133 for Lyp (Lyp): 7.8 fold
C#Cc1c(-c2cccc(Cl)c2)oc2cc(O)c(C(=O)O)cc12 [42 (Core72)] | 3.1 µM | –
Cn1c(-c2ccc(C(F)(F)F)cc2)c(I)c2cc(C(=O)O)c(O)cc21 [Compound 207f, 6-hydroxy-3-iodo-1-methyl-2-(4-(trifluoromethyl)phenyl)-1H-indole-5-carboxylic acid] | 7 ± 1 µM | –
Cn1c(-c2cccc(F)c2)c(I)c2cc(C(=O)O)c(O)cc21 [Compound 207h, 2-(3-fluorophenyl)-6-hydroxy-3-iodo-1-methyl-1H-indole-5-carboxylic acid] | 11 ± 1 µM | –
Cn1c(-c2ccccc2C(F)(F)F)c(C#Cc2cccc(C(F)(F)F)c2)c2cc(C(=O)O)c(O)cc21 [Compound 209b, 6-hydroxy-1-methyl-2-(2-(trifluoromethyl)phenyl)-3-((3-(trifluoromethyl)phenyl)ethynyl)-1H-indole-5-carboxylic acid] | 0.23 ± 0.04 µM | –
Cn1c(-c2ccccc2C(F)(F)F)c(C(=O)CCNC(=O)c2cccc(I)c2)c2cc(C(=O)O)c(O)cc21 [Compound 213b, 6-hydroxy-3-(3-(3-iodobenzamido)propanoyl)-1-methyl-2-(2-(trifluoromethyl)phenyl)-1H-indole-5-carboxylic acid] | 0.68 ± 0.04 µM | In % @ 1 μM (mPTPB) (mPTPB): 52%
O=C(O)c1cc2c(C=Cc3cccc(C(F)(F)F)c3)c(-c3ccccc3)oc2cc1O [44 (L01X09)] | 1.2 µM | –
C#Cc1c(-c2ccc(OC(F)(F)F)cc2)oc2cc(O)c(C(=O)O)cc12 [35 (Core73)] | 1.71 µM | –
O=C(O)c1cc2c(C#Cc3ccsc3)c(-c3ccc(OC(F)(F)F)cc3)oc2cc1O [38 (L73Z03)] | 0.35 µM | –
Cn1c(-c2ccccc2C(F)(F)F)c(C#Cc2ccc(OC(F)(F)F)cc2)c2cc(C(=O)O)c(O)cc21 [Compound 209f, 6-hydroxy-1-methyl-3-((4-(trifluoromethoxy)phenyl)ethynyl)-2-(2-(trifluoromethyl)phenyl)-1H-indole-5-carboxylic acid] | 0.85 ± 0.2 µM | –
Cn1c(-c2ccccc2C(F)(F)F)c(C(=O)CCNC(=O)c2ccc3nc(-c4ccccc4Br)[nH]c3c2)c2cc(C(=O)O)c(O)cc21 [Compound 213d, 3-(3-(2-(2-bromophenyl)-1H-benzo[d]imidazole-6-carboxamido)propanoyl)-6-hydroxy-1-methyl-2-(2-(trifluoromethyl)phenyl)-1H-indole-5-carboxylic acid] | 5.2 ± 0.2 µM | In % @ 1 μM (mPTPB) (mPTPB): 10%
O=C(O)c1cc2c(C#Cc3ccc(Cl)c(Cl)c3)c(-c3ccc(OC(F)(F)F)cc3)oc2cc1O [37 (L73Z02)] | 0.12 µM | –
O=C(O)COc1cccc(-c2oc3cc(O)c(C(=O)O)cc3c2C#Cc2cccc(Cl)c2)c1 [49 (Core 74)] | 0.076 µM | loss of activity compare with compound 133 for Lyp (Lyp): 15 fold
